Assay results reported in ChEMBL document CHEMBL1201862, “PubChem BioAssay data set” (2004).
Activity calls are given as the source filed them. Rule as the data show it, for most assays here: actives have a measured IC50 and inactives only a lower limit.

Columns and labels:
[1] = molecular target: T1, Sentrin-specific protease 8 (Homo sapiens, UniProt Q96LD8); type: functional;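 also: luminescence read-out of SENP8 inhibition, dose-response confirmation following an ultra-high-throughput screen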
T1 sequence (Q96LD8 whole entry): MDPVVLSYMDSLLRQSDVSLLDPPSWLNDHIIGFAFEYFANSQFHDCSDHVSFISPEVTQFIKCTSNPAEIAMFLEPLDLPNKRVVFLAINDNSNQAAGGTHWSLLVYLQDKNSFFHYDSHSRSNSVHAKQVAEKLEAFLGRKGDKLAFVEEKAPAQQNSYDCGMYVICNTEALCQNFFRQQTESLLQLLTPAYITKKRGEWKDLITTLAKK

[2] = molecular target: T2, Sentrin-specific protease 7 (Homo sapiens, UniProt Q9BQF6); type: functional;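 also: Luminescence-based dose-response confirmation of ultra-high-throughput screening hits, measuring inhibition of SENP7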
T2 sequence (Q9BQF6 whole entry): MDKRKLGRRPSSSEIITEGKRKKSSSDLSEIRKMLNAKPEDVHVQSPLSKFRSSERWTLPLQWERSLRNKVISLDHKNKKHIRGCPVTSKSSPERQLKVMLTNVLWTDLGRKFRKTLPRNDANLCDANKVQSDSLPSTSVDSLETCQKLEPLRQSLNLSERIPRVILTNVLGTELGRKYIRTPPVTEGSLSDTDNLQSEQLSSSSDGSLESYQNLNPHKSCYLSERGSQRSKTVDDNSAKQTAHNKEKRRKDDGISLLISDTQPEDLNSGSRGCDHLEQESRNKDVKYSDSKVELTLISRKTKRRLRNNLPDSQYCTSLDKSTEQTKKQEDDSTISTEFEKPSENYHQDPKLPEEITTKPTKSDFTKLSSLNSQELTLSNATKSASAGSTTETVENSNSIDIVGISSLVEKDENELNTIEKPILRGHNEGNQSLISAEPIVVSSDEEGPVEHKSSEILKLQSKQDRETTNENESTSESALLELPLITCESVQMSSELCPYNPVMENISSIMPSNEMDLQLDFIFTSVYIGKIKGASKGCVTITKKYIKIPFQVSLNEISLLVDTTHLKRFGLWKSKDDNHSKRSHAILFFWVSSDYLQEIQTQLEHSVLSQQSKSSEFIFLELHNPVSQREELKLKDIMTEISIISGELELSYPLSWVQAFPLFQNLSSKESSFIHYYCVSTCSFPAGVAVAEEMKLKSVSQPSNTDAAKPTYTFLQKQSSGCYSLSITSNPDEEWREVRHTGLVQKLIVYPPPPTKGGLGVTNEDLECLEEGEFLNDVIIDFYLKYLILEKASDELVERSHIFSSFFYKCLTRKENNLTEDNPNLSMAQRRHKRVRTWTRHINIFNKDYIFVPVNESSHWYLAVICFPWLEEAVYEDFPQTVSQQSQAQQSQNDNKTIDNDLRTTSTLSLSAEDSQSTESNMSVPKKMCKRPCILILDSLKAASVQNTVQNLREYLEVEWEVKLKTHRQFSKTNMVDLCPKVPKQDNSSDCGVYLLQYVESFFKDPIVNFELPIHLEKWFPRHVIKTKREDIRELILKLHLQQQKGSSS

Protein RecA = molecular target: T3, Protein RecA (Mycobacterium tuberculosis, UniProt P9WHJ3); test: Fluorescence Cell-Free Homogeneous Dose Retest to Identify Inhibitors of RecA-Intein Splicing Activity. [Related pubchem assays (depositor defined):AID2097, AID2223, AID489010, AID492950]; type: functional
T3 sequence (P9WHJ3 whole entry): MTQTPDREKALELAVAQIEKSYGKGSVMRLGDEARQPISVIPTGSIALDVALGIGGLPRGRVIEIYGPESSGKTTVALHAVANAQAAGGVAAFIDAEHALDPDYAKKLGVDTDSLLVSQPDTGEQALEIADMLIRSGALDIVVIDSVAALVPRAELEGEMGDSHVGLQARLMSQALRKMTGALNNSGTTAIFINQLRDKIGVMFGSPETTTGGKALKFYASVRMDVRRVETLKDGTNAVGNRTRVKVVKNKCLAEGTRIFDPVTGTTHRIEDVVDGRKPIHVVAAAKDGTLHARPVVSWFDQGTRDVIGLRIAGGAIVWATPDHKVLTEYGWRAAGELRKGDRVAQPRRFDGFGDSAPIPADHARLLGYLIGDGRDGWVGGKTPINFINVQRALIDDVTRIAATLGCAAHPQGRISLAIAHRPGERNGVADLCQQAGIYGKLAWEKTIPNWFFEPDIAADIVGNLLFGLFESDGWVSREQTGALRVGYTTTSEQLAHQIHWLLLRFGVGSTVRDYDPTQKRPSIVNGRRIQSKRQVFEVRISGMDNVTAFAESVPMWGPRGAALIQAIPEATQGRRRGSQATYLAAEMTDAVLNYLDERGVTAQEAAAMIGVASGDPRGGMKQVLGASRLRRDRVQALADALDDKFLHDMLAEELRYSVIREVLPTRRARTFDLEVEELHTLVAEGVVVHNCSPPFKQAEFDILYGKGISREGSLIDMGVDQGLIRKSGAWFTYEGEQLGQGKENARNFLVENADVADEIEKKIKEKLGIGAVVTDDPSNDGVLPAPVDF

[3] = molecular target: Voltage-gated N-type calcium channel alpha-1B subunit/Amyloid beta A4 precursor protein-binding family A member 1 (Homo sapiens, UniProt Q00975+Q02410); type: protein assay
[4] = molecular target: T4, Tyrosine-protein phosphatase non-receptor type 22 (Homo sapiens, UniProt Q9Y2R2); test: PubChem AID 2135
T4 sequence (Q9Y2R2 whole entry): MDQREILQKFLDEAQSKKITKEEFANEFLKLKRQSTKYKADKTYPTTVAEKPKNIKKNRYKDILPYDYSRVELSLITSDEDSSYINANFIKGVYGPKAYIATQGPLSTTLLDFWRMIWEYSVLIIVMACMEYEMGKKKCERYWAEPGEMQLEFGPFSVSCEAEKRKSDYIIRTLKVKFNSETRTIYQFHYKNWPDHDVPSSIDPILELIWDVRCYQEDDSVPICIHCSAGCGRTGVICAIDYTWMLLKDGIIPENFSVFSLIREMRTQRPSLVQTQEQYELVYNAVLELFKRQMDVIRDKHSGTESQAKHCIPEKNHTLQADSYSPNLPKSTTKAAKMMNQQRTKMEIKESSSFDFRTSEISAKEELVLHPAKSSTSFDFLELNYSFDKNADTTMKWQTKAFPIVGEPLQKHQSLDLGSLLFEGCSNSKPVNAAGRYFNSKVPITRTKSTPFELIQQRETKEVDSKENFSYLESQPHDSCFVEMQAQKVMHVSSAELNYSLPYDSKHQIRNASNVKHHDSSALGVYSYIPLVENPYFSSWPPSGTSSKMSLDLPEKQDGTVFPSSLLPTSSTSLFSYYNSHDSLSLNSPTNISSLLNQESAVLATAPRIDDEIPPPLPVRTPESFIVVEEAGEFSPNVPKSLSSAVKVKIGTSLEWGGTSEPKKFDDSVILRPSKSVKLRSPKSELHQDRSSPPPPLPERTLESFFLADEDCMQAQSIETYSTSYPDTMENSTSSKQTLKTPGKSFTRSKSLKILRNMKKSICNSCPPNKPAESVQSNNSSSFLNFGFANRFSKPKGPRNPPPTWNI

Chain of Voltage-gated N-type calcium channel alpha-1B subunit/Amyloid beta A4 precursor protein-binding family A member 1 (Q00975 whole entry): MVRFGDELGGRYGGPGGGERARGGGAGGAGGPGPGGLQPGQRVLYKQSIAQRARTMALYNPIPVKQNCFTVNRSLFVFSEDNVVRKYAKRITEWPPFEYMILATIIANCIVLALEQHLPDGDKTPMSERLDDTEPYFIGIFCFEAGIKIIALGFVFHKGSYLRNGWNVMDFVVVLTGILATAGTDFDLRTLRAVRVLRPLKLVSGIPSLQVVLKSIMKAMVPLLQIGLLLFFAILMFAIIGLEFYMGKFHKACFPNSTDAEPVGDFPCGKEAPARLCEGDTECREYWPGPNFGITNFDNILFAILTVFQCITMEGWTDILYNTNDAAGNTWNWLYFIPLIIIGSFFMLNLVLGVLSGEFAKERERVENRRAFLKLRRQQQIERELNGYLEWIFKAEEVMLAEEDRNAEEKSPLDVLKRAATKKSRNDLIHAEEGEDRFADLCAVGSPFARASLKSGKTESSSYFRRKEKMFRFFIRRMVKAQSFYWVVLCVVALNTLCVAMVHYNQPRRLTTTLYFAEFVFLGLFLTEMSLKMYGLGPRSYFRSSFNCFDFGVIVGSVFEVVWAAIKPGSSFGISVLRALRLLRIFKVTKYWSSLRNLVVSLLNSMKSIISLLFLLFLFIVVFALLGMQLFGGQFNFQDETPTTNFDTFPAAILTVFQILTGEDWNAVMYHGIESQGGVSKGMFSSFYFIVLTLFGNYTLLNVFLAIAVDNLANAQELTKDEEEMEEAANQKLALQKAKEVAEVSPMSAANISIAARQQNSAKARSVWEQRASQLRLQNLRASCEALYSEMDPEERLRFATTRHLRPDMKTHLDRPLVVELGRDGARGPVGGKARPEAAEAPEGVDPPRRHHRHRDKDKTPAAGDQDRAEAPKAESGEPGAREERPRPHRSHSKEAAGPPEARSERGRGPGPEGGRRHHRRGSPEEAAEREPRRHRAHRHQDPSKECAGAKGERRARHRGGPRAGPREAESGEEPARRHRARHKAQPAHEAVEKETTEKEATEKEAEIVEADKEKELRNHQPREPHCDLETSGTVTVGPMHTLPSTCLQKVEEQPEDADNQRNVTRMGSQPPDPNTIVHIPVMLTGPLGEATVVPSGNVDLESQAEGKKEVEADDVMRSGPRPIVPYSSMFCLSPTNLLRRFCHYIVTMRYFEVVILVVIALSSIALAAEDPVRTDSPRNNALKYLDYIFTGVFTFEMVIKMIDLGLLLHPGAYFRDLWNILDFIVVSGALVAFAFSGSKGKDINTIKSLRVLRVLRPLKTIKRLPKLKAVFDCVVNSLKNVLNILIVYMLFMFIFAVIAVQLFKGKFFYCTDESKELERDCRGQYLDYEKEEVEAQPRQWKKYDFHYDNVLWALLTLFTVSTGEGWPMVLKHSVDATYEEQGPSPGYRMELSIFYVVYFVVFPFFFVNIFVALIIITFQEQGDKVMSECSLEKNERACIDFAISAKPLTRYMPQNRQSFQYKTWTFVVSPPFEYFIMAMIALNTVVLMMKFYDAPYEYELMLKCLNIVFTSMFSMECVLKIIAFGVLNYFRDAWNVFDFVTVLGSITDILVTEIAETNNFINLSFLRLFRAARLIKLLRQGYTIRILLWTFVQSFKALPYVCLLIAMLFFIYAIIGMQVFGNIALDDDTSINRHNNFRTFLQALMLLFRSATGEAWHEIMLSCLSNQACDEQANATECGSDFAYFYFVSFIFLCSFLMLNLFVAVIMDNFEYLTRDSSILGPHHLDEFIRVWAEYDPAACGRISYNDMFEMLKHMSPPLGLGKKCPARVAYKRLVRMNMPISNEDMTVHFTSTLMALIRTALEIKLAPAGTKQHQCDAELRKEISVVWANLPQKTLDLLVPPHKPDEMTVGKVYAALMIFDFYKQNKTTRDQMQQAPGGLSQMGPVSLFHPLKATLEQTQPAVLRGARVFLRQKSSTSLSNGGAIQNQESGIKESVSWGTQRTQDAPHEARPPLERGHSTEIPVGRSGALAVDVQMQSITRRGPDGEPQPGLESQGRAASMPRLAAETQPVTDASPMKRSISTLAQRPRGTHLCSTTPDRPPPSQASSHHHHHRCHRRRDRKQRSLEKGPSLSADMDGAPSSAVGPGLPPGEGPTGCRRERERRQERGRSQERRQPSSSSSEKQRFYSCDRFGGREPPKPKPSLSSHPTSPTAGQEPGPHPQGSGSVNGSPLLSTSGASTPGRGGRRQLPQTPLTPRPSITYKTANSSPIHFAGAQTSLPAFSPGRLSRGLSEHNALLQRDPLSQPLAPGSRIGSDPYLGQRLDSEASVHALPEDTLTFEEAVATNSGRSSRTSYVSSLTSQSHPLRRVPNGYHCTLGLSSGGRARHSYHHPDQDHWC
Chain of Voltage-gated N-type calcium channel alpha-1B subunit/Amyloid beta A4 precursor protein-binding family A member 1 (Q02410 whole entry): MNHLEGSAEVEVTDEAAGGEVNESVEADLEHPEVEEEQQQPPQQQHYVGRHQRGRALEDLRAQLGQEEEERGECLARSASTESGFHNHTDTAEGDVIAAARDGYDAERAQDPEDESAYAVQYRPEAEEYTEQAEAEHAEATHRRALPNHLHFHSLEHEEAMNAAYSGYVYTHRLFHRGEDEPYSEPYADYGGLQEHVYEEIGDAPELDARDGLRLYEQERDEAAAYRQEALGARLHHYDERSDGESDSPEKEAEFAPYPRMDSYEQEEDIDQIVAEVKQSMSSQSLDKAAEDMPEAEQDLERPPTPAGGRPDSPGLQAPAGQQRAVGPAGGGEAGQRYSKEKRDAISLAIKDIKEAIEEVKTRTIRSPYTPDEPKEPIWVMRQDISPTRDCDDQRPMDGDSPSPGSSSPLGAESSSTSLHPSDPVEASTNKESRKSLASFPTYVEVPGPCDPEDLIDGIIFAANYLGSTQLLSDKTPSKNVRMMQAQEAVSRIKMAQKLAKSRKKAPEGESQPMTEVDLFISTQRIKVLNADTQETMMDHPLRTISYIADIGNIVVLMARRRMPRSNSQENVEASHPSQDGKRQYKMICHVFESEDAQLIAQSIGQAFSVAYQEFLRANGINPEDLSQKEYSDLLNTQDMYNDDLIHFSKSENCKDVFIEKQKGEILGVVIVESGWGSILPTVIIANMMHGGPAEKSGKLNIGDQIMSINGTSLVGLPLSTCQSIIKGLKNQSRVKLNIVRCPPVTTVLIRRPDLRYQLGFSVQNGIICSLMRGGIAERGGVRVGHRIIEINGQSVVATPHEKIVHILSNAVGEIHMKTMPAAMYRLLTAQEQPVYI

| Compound | IC50 [1] | IC50 [2] | EC50 (Protein RecA) | IC50 [3] | IC50 [4] |
| --- | --- | --- | --- | --- | --- |
| COc1ccc(Nc2ccc3c(c2)=NC2(CCCCC2)[N+]=3[O-])cc1 | 14.8 µM (active) | 9.21 µM (active) | 4.39 µM (active) | – | – |
| COc1ccc(/C=C2\SC(=S)N(CCC(=O)Nc3ccc(C(=O)O)cc3)C2=O)cc1OC | – | – | – | > 50 µM (inactive) | 2.96 µM (active) |
